{"source": "patent US6593342B1", "about": "“Pharmaceutical compositions comprising 2-quinolones” (Laboratoire L. Lafon, priority 1998, dated 2003)", "key": {"[1]": {"system": "hormone-sensitive mouse mammary adenocarcinoma MXT (HS-MXT)", "assay": "In vivo antitumor activity, mouse mammary adenocarcinoma HS-MXT", "description": "(§1) 4.—In Vivo Antitumor Activity in Combination With a Cytotoxic Agent\n(§2) The tests were carried out on models of:\nhormone-sensitive mouse mammary adenocarcinoma MXT (HS-MXT),\n(§3) in the presence or absence of cytotoxic agents such as cyclophosphamide, etoposide, doxorubicin or vincristine.\n(§4) When the MTD value of a product was determined, its in vivo antitumor activity was characterized at doses of MTD/2, MTD/4 and MTD/8 on the model of mouse mammary adenocarcinoma HS-MXT and on the model of lymphoma P 388.\n(§5) In all the examples presented below, irrespective of the model (mammary adenocarcinoma HS-MXT or lymphoma P 388), the control condition is represented by a batch of 9 mice to which is administered for 5 consecutive weeks and at a rate of 5 administrations (Monday, Tuesday, Wednesday, Thursday and Friday) per week a volume of 0.2 ml of physiological saline containing the solvent used to dissolve the various compounds of formulae (I) and (Ia) used.\nThe following parameters were determined in these tests:\n(§6) i)—The survival rate of the mice\n(§7) This survival rate was calculated in the form of a ratio T/C:\n(§8) This ratio represents the average survival time of the median mouse from the batch of treated mice relative to the average survival time of the median mouse from the batch of control mice. Thus, a molecule induces a significant (P<0.05) increase in the survival of the animals when the index T/C exceeds 130%. Conversely, it has a toxic effect when this value of T/C is less than 70%.\nii)—The tumor growth [lacuna] by measuring the area of the grafted HS-MXT or P 388 tumors twice a week (Monday and Friday). This area is calculated by multiplying the values of the largest two perpendicular axes of the tumor. The value of these axes is measured using a sliding caliper.\nThe model of hormone-sensitive MXT (HS-MXT) mouse mammary adenocarcinoma grafted onto 4- to 6-week-old B6D2F1/JIco mice is derived from the milk ducts of the mammary gland (Watson C. et al. Cancer Res. 1977; 37: 3344-48).\nCompound 1 is administered alone. The first injection of the product is carried out on the seventh day post-grafting (D7) for four consecutive weeks at a rate of 5 injections per week (Monday, Tuesday, Wednesday, Thursday and Friday) and at a dose of 20 mg/kg.\nCyclophosphamide (CPA) is administered alone. The first injection of the product is carried out on the fourteenth day post-grafting (D14) for three consecutive weeks at a rate of 3 injections per week (Monday, Wednesday and Friday) and at a dose of 10 mg/kg.\nCompound 1 is co-administered with cyclophosphamide. In this case, the first injection of compound 1 is carried out on the seventh day post-grafting (D7) for four consecutive weeks at a rate of 5 injections per week (Monday, Tuesday, Wednesday, Thursday and Friday) at a dose of 20 mg/kg, and the first injection of cyclophosphamide is carried out on the fourteenth day post-grafting (D14) for three consecutive weeks at a rate of 3 injections per week (Monday, Wednesday and Friday) at a dose of 10 mg/kg.\nEtoposide (ETO) is administered alone. The first injection of the product is carried out on the fourteenth day post-grafting (D14) for three consecutive weeks at a rate of 3 injections per week (Monday, Wednesday and Friday) and at a dose of 10 mg/kg.\nDoxorubicin (DOX) is administered alone. The first injection of the product is carried out on the fourteenth day post-grafting (D14) for three consecutive weeks at a rate of 3 injections per week (Monday, Wednesday and Friday) and at a dose of 5 mg/kg.\nCompound 1 is co-administered with etoposide."}, "lymphoma P 388": {"system": "lymphoma P 388", "assay": "In vivo antitumor activity, lymphoma P 388", "design": "species or system mouse", "conditions": "Table IX; subcutaneous P 388 in CDF1 mice; compound 1 or 20 40 mg/kg 5/week from D5, 5 weeks; VCR 0.63 mg/kg 3/week from D5, 3 weeks", "description": "as §1, §2, §3, §4, §5, §6, §7, §8\n4- to 6-week-old CDF1 mice are grafted with a piece of P 388 tumor (from a tumor bank maintained in the laboratory) subcutaneously into the right flank on day D0. In order to be under conditions close to clinical reality, we waited until the 5th day post-grafting (D5) before starting the treatment. The reason for this was that, after this period of time, the subcutaneous P 388 tumors are palpable.\nCompound 1 is administered alone. The first injection of the product is carried out on the 5th day post-grafting (D5) at a rate of 5 injections per week (Monday, Tuesday, Wednesday, Thursday and Friday) for five consecutive weeks-and at a dose of 40 mg/kg.\nCompound 20 is administered alone. […]"}, "[2]": {"conditions": "Table V, HS-MXT in B6D2F1/JIco mice, compound 1 20 mg/kg 5/week from D7, 4 weeks, ETO 10 mg/kg or DOX 5 mg/kg 3/week from D14, 3 weeks"}}, "data": [{"smiles": "COc1cc([C@@H]2c3cc4c(cc3[C@@H](O[C@@H]3O[C@@H]5CO[C@@H](C)O[C@H]5[C@H](O)[C@H]3O)[C@H]3COC(=O)[C@H]23)OCO4)cc(OC)c1O", "note": "[ETO, Etoposide]", "values": [{"measurement": "T/C (survival)", "setting": "[1]; [2]", "value": 130, "unit": "%"}, {"measurement": "T/C (survival)", "setting": "[1]; Table VII, HS-MXT, compound 21 40 mg/kg 5/week from D7, 5 weeks, ETO 10 mg/kg 3/week from D7, 3 weeks", "value": 124, "unit": "%"}]}, {"smiles": "COc1cccc2c1C(=O)c1c(O)c3c(c(O)c1C2=O)C[C@@](O)(C(=O)CO)C[C@@H]3O[C@H]1C[C@H](N)[C@H](O)[C@H](C)O1", "note": "[DOX, Doxorubicin]", "values": [{"measurement": "T/C (survival)", "setting": "[1]; [2]", "value": 92.5, "unit": "%"}]}, {"smiles": "CC[C@]1(O)C[C@H]2CN(CCc3c([nH]c4ccccc34)[C@@](C(=O)OC)(c3cc4c(cc3OC)N(C=O)[C@H]3[C@@](O)(C(=O)OC)[C@H](OC(C)=O)[C@]5(CC)C=CCN6CC[C@]43[C@@H]65)C2)C1", "note": "[VCR, Vincristine, reference compound]", "values": [{"measurement": "T/C (survival)", "setting": "lymphoma P 388", "value": 122, "unit": "%"}]}, {"smiles": "O=P1(N(CCCl)CCCl)NCCCO1", "note": "(stereo not drawn) [CPA, Cyclophosphamide]", "values": [{"measurement": "T/C (survival)", "setting": "[1]; Table IV, HS-MXT in B6D2F1/JIco mice, compound 1 20 mg/kg 5 injections/week from D7, 4 weeks, CPA 10 mg/kg 3 injections/week from D14, 3 weeks", "value": 122, "unit": "%"}, {"measurement": "Tumor area, reduction (−) or increase (+) compared with control", "setting": "[1]; Table VI, HS-MXT tumors, 31st day after graft, 19 administrations of compound 1 (20 mg/kg), 8 of cyclophosphamide (10 mg/kg)", "value": "−23.6", "unit": "%"}]}]}
